Laboratory results as given in patent publication US20060069132A1, “Azolecarboxamide herbicides” (priority 2004, published 2006).

Tests used:
barnyardgrass [1] = experiment: Test B pre-/postemergence herbicide test; format: in vivo, Echinochloa crus-galli; details: for Barnyardgrass plant response rating: scale 0 (no effect) to 100 (complete control)
Summary of the method: (§1)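 Species tested were Echinochloa crus-galli, Ipomoea coccinea, Xanthium strumarium and Oryza sativa, treated both before emergence and at the 1- to 4-leaf stage; rice and barnyardgrass were also tested under flooding at 2 leaves. Greenhouse incubation lasted 13–15 days before visual 0–100 scoring.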

Surinam grass = experiment: Test B pre-/postemergence herbicide test; format: in vivo, Urochloa decumbens; details: for Surinam Grass plant response rating: scale 0 (no effect) to 100 (complete control)
Summary of the method: (§2)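 Test chemicals in a non-phytotoxic solvent mixture with surfactant were applied preemergence to seeded species and postemergence to plants 2-18 cm tall (1- to 4-leaf stage); rice and barnyardgrass were also tested in a flooded paddy at the 2-leaf stage. Visual rating versus controls after 13-15 days in greenhouse, scale 0 (no effect) to 100 (complete control).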

cocklebur = experiment: Test B pre-/postemergence herbicide test; format: in vivo, Xanthium strumarium; details: for Cocklebur plant response rating: scale 0 (no effect) to 100 (complete control)
Summary of the method: as §1

corn = experiment: Test B pre-/postemergence herbicide test; format: in vivo, Zea mays; details: for Corn plant response rating: scale 0 (no effect) to 100 (complete control)
Summary of the method: as §2

large crabgrass [2] = experiment: Test B pre-/postemergence herbicide test; format: in vivo, Digitaria sanguinalis; details: for Crabgrass, Large plant response rating: scale 0 (no effect) to 100 (complete control)
Summary of the method: as §2

giant foxtail [3] = experiment: Test B pre-/postemergence herbicide test; format: in vivo, Setaria faberi; details: for Foxtail, Giant plant response rating: scale 0 (no effect) to 100 (complete control)
Summary of the method: as §2

lambsquarters = experiment: Test B pre-/postemergence herbicide test; format: in vivo, Chenopodium album; details: for Lambsquarters plant response rating: scale 0 (no effect) to 100 (complete control)
Summary of the method: as §2

morningglory [4] = experiment: Test B pre-/postemergence herbicide test; format: in vivo, Ipomoea coccinea; details: for Morningglory plant response rating: scale 0 (no effect) to 100 (complete control)
Summary of the method: as §1

pigweed = experiment: Test B pre-/postemergence herbicide test; format: in vivo, Amaranthus retroflexus; details: for Pigweed plant response rating: scale 0 (no effect) to 100 (complete control)
Summary of the method: as §2

velvetleaf [5] = experiment: Test B pre-/postemergence herbicide test; format: in vivo, Abutilon theophrasti; details: for Velvetleaf plant response rating: scale 0 (no effect) to 100 (complete control)
Summary of the method: as §2

blackgrass = experiment: Test B postemergence herbicide test; format: in vivo, Alopecurus myosuroides; details: scale 0 (no effect) to 100 (complete control)
Summary of the method: (§3)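 Plants grow to 1- to 4-leaf stage (2–18 cm) for postemergence spraying, or to 2-leaf stage for the paddy test. Formulated compound is applied. Greenhouse holding lasts 13–15 days. Response is scored visually relative to controls, 0 no effect to 100 complete control; a dash means no result.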

wheat = experiment: Test B postemergence herbicide test; format: in vivo, Triticum aestivum; parameters: key to Wheat plant response rating: 0 = no effect, 100 = complete control
Summary of the method: (§4)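 Visual ratings, 0 (no effect) to 100 (complete control), made versus controls after 13–15 d greenhouse. Paddy plants treated at 2-leaf stage; postemergence plants at 1- to 4-leaf stage, 2–18 cm tall.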

wild oat = experiment: Test B postemergence herbicide test; format: in vivo, Avena fatua; details: scale 0 (no effect) to 100 (complete control)
Summary of the method: as §4

rice [6] = experiment: Test B flooded paddy test; format: in vivo, Oryza sativa; details: scale 0 to 100 (0 no effect, 100 complete control)
Summary of the method: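 Paddy species grown to the 2-leaf stage under flooding; blackgrass sprayed postemergence at 2–18 cm (1- to 4-leaf stage). Plants kept in a greenhouse for 13 to 15 days, then visually rated against controls on 0 (no effect) to 100 (complete control).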

[7] = test system: small flower umbrella sedge; experiment: Test B flooded paddy test; format: in vivo, Cyperus difformis; details: scale 0 to 100 (0 no effect, 100 complete control)
Summary of the method: as §3

ducksalad [8] = experiment: Test B flooded paddy test; format: in vivo, Heteranthera limosa; details: scale 0 to 100 (0 no effect, 100 complete control)
Summary of the method: as §3

barnyardgrass [9] = experiment: Test B flooded paddy test; format: in vivo, Echinochloa crus-galli; details: scale 0 to 100 (0 no effect, 100 complete control)
Summary of the method: as §3

rice [10] = experiment: Test C flooded paddy test; format: in vivo, Oryza sativa
Summary of the method: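 Plants were grown to the 1- to 4-leaf stage (2–18 cm) and then treated postemergence, or grown to the 2-leaf stage for the flooded paddy test. They were held in a greenhouse for 12 to 14 days and then scored by eye against controls, where 0 is no effect and 100 is complete control.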

[11] = test system: smallflower umbrella sedge; experiment: Test C flooded paddy test; format: in vivo, Cyperus difformis
ducksalad [12] = experiment: Test C flooded paddy test; format: in vivo, Heteranthera limosa
barnyardgrass [13] = experiment: Test C flooded paddy test; format: in vivo, Echinochloa crus-galli
Summary of the method: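 Injury scored visually against controls on a 0 (no effect) to 100 (complete control) scale, 12 to 14 days after treatment in greenhouse. Flooded paddy plants treated at 2-leaf stage; postemergence plants at 1- to 4-leaf stage, 2 to 18 cm tall.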

barnyardgrass [14] = experiment: Test A pre-/postemergence herbicide test; format: in vivo, Echinochloa crus-galli
Summary of the method: (§5)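 Plants are held in greenhouse about ten days after treatment, then compared with untreated controls and scored 0 (no effect) to 100 (complete control). Preemergence dosing is a directed soil spray on sown sandy loam; postemergence dosing is spray to runoff at 2–10 cm height.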

large crabgrass [15] = experiment: Test A pre-/postemergence herbicide test; format: in vivo, Digitaria sanguinalis
Summary of the method: as §5

giant foxtail [16] = experiment: Test A pre-/postemergence herbicide test; format: in vivo, Setaria faberi
Summary of the method: as §5

morningglory [17] = experiment: Test A pre-/postemergence herbicide test; format: in vivo, Ipomoea spp.
Summary of the method: as §5

redroot pigweed = experiment: Test A pre-/postemergence herbicide test; format: in vivo, Amaranthus retroflexus
Summary of the method: as §5

velvetleaf [18] = experiment: Test A pre-/postemergence herbicide test; format: in vivo, Abutilon theophrasti
Summary of the method: as §5

[19] = 125 g ai/ha, 0 is no effect, 100 is complete control, preemergence
[20] = 125 g ai/ha, visual rating, postemergence
[21] = 125 g ai/ha, scale 0 to 100 (0 no effect, 100 complete control)
[22] = 250 g ai/ha, scale of 0 to 100, 0 is no effect, 100 is complete control
[23] = 500 g ai/ha, visual rating after 12 to 14 days, scale 0 to 100 (0 no effect, 100 complete control)
[24] = Postemergence, 125 g ai/ha, 0 to 100 scale, 0 no effect, 100 complete control
[25] = Postemergence, 500 g ai/ha, 0 to 100 scale, 0 no effect, 100 complete control
[26] = preemergence, 125 g ai/ha, visual injury, 0 to 100 scale (0 no effect, 100 complete control)
[27] = preemergence, 500 g ai/ha, visual injury, 0 to 100 scale (0 no effect, 100 complete control)

## Cc1nn(C(C)C)nc1C(=O)Nc1cccc(C(=O)N(C)C)c1 [Compound 404]
Barnyardgrass [1]; [19]
  Plant response rating (0 to 100 scale), Barnyardgrass: 70
Barnyardgrass [1]; [20]
  Barnyardgrass plant response rating: 10
Barnyardgrass [1]; Postemergence, 500 g ai/ha
  Barnyardgrass plant response rating: 10
Surinam grass; [19]
  Plant response rating (0 to 100 scale), Surinam Grass: 40
Surinam grass; [20]
  Surinam Grass plant response rating: 0
Surinam grass; Postemergence, 500 g ai/ha
  Surinam Grass plant response rating: 10
cocklebur; [19]
  Plant response rating (0 to 100 scale), Cocklebur: 40
cocklebur; [20]
  Cocklebur plant response rating: 10
cocklebur; Postemergence, 500 g ai/ha
  Cocklebur plant response rating: 30
corn; [19]
  Plant response rating (0 to 100 scale), Corn: 0
corn; [20]
  Corn plant response rating: 0
corn; Postemergence, 500 g ai/ha
  Corn plant response rating: 10
Large crabgrass [2]; [19]
  Plant response rating (0 to 100 scale), Crabgrass, Large: 70
Large crabgrass [2]; [20]
  Crabgrass, Large plant response rating: 0
Large crabgrass [2]; Postemergence, 500 g ai/ha
  Crabgrass, Large plant response rating: 10
Giant foxtail [3]; [19]
  Plant response rating (0 to 100 scale), Foxtail, Giant: 30
Giant foxtail [3]; [20]
  Foxtail, Giant plant response rating: 10
Giant foxtail [3]; Postemergence, 500 g ai/ha
  Foxtail, Giant plant response rating: 40
lambsquarters; [19]
  Plant response rating (0 to 100 scale), Lambsquarters: 90
lambsquarters; [20]
  Lambsquarters plant response rating: 60
lambsquarters; Postemergence, 500 g ai/ha
  Lambsquarters plant response rating: 80
Morningglory [4]; [19]
  Plant response rating (0 to 100 scale), Morningglory: 60
Morningglory [4]; [20]
  Morningglory plant response rating: 20
Morningglory [4]; Postemergence, 500 g ai/ha
  Morningglory plant response rating: 70
pigweed; [19]
  Plant response rating (0 to 100 scale), Pigweed: 70
pigweed; [20]
  Pigweed plant response rating: 10
pigweed; Postemergence, 500 g ai/ha
  Pigweed plant response rating: 30
Velvetleaf [5]; [19]
  Plant response rating (0 to 100 scale), Velvetleaf: 20
Velvetleaf [5]; [20]
  Velvetleaf plant response rating: 30
Velvetleaf [5]; Postemergence, 500 g ai/ha
  Velvetleaf plant response rating: 30
blackgrass; [20]
  Blackgrass plant response rating: 10
blackgrass; Postemergence, 500 g ai/ha
  Blackgrass plant response rating: 30
wheat; 125 g ai/ha, visual rating, scale 0 (no effect) to 100 (complete control), postemergence
  Wheat plant response rating: 0
wheat; 500 g ai/ha, scale 0 to 100, 0 no effect, 100 complete control, preemergence
  Wheat plant response rating: 100
wheat; Postemergence, 500 g ai/ha, scale 0 (no effect) to 100 (complete control)
  Wheat plant response rating: 0
Wild oat; [20]
  Oat, Wild plant response rating: 0
Wild oat; Postemergence, 500 g ai/ha
  Oat, Wild plant response rating: 10
Rice [6]; 1000 g ai/ha
  Rice plant response rating: 60
[7]; 1000 g ai/ha
  Sedge, Umbrella plant response rating: 90
Ducksalad [8]; 1000 g ai/ha
  Ducksalad plant response rating: 90
Barnyardgrass [9]; 1000 g ai/ha
  Barnyardgrass plant response rating: 90
Rice [10]; 62 g ai/ha, scale 0 to 100
  Rice plant response rating: 0
Rice [10]; [21]
  Rice plant response rating: 0
Rice [10]; [22]
  Rice plant response rating: 45
Rice [10]; [23]
  Plant response rating, Rice: 50
[11]; 62 g ai/ha, scale 0 to 100
  Sedge, Umbrella plant response rating: 70
[11]; [21]
  Sedge, Umbrella plant response rating: 75
[11]; [22]
  Sedge, Umbrella plant response rating: 80
[11]; [23]
  Plant response rating, Sedge, Umbrella: 85
Ducksalad [12]; 62 g ai/ha, scale 0 to 100
  Ducksalad plant response rating: 10
Ducksalad [12]; [21]
  Ducksalad plant response rating: 10
Ducksalad [12]; [22]
  Ducksalad plant response rating: 20
Ducksalad [12]; [23]
  Plant response rating, Ducksalad: 30
Barnyardgrass [13]; 62 g ai/ha, scale 0 to 100 (0 no effect, 100 complete control)
  Barnyardgrass plant response rating: 0
Barnyardgrass [13]; [21]
  Barnyardgrass plant response rating: 0
Barnyardgrass [13]; [22]
  Barnyardgrass plant response rating: 20
Barnyardgrass [13]; [23]
  Plant response rating, Barnyardgrass: 30

## CCn1nc(C(C)(C)C)nc1C(=O)Nc1cccc(C(=O)N(C)C)c1 [Compound 448]
Barnyardgrass [14]; [24]
  Barnyardgrass plant response rating: 90
Barnyardgrass [14]; [25]
  Barnyardgrass plant response rating: 90
Barnyardgrass [14]; [26]
  Barnyardgrass plant response rating: 95
Barnyardgrass [14]; [27]
  Barnyardgrass plant response rating: 100
Large crabgrass [15]; [24]
  Crabgrass, Large plant response rating: 75
Large crabgrass [15]; [25]
  Crabgrass, Large plant response rating: 80
Large crabgrass [15]; [26]
  Crabgrass, Large plant response rating: 45
Large crabgrass [15]; [27]
  Crabgrass, Large plant response rating: 85
Giant foxtail [16]; [24]
  Foxtail, Giant plant response rating: 85
Giant foxtail [16]; [25]
  Foxtail, Giant plant response rating: 90
Giant foxtail [16]; [26]
  Foxtail, Giant plant response rating: 80
Giant foxtail [16]; [27]
  Foxtail, Giant plant response rating: 100
Morningglory [17]; [24]
  Morningglory plant response rating: 15
Morningglory [17]; [25]
  Morningglory plant response rating: 55
Morningglory [17]; [26]
  Morningglory plant response rating: 60
Morningglory [17]; [27]
  Morningglory plant response rating: 60
Redroot pigweed; [24]
  Pigweed plant response rating: 70
Redroot pigweed; [25]
  Pigweed plant response rating: 90
Redroot pigweed; [26]
  Pigweed plant response rating: 100
Redroot pigweed; [27]
  Pigweed plant response rating: 100
Velvetleaf [18]; [24]
  Velvetleaf plant response rating: 60
Velvetleaf [18]; [25]
  Velvetleaf plant response rating: 80
Velvetleaf [18]; [26]
  Velvetleaf plant response rating: 15
Velvetleaf [18]; [27]
  Velvetleaf plant response rating: 85
Rice [6]; 125 g ai/ha
  Rice plant response rating: 80
Rice [6]; 500 g ai/ha
  Rice plant response rating: 90
[7]; 125 g ai/ha
  Sedge, Umbrella plant response rating: 90
[7]; 500 g ai/ha
  Sedge, Umbrella plant response rating: 90
Ducksalad [8]; 125 g ai/ha
  Ducksalad plant response rating: 70
Ducksalad [8]; 500 g ai/ha
  Ducksalad plant response rating: 80
Barnyardgrass [9]; 125 g ai/ha
  Barnyardgrass plant response rating: 90
Barnyardgrass [9]; 500 g ai/ha
  Barnyardgrass plant response rating: 100
